In patent publication US12385042B2, “Cell-penetrating peptides” (VECTIOPEP OÜ, priority 2019, dated 2025):
“Also recorded” adds a separate entry of the source. Where a SMILES comes first, the peptide text is derived from it. Bridges are numbered along the chain shown (N, C = ends). Roman numbers before positions name the chains, in order. [ ]: non-standard residue; d: D form. The star is where a group is joined. Stearoyl = CCCCCCCCCCCCCCCCCC(=O)*; Orn = NCCC[C@H](N)C(=O)O

How the values were obtained:
[1] = Negative staining TEM of CPP/siRNA nanoparticles; type: physicochemical; details: CPP/siRNA complexes at MR30
Description: For the morphological analysis the CPP/siRNA complexes were assembled as described above at MR30. For negative staining, copper grids were covered with Formvar film and carbon layer using Leica EM ACE600 carbon coater (Leica Microsystems, Germany). Then, 10 μL of each sample was absorbed to the grids for 2 min and excess of solution was gently removed. Samples were then exposed to 2% aqueous uranyl acetate solution for 1 min. After removing excess stain with filter paper, the samples were allowed to air-dry. The samples were examined at 120 kV accelerating voltage on FEI Tecnai G2 Spirit electron microscope (FEI, The Netherlands).

[2] = Fluorescent dye (PicoGreen) intercalation and heparin displacement assay of CPP/siRNA complexes; type: physicochemical; details: 0.5 mg/ml heparin, complexes pre-formed at MR30
Description: Complexation of siRNA and CPPs was assessed by Quant-iT™ PicoGreen® (PG) (Thermo Fisher Scientific, USA) assay in mQ water. Complexes were prepared as described previously, following addition of diluted PG. For detection, complexes (⅕ of volume), water (3/5) and PG (1/5) working dilution was incubated for 5 minutes and fluorescence was measured by fluorimeter (λex=492 nm, λem=535 nm) (SynergyMx, BioTek). For heparin displacement, instead of water, heparin salt solution at different concentrations were used and complexes incubated at 37° C. for 30 min before addition of PG dilution. Complex formation was also confirmed by gel electrophoresis (details in section 2.11).

[3] = test system: U87 MG-luc2 human glioma cells, stably expressing luc2; test: Luciferase gene downregulation by CPP/siRNA (siLuc2) complexes; type: cell-based; details: CPP/siRNA complexes; for Red (%) (reduction, based on remaining luminescence on U87 cells post-treatment): siRNA against luciferase; for luciferase downregulation efficiency (in words): comparison between CPPs
Description: For assessing the siRNA mediated RNAi, CHO-GFP or U87-luc2 cells (5×10^5 cells per well) were seeded on a 24-well plate a day prior to the experiment and grown in serum containing media. On experiment day, prior to adding pre-formed complexes ( 1/10th of the final volume per well), media was replaced with fresh serum containing medium.
For complex formation, peptide was mixed with luc2 siRNA (sense 5′-[…]-3′ (SEQ ID NO:7), antisense 5′-[…] 3′ (SEQ ID NO:8), Metabion, Germany) or with siRNA against GFP (5′-[…] (SEQ ID NO:9), 3′-[…] (SEQ ID NO:10)) in mQ water (pH 5.3-6.3) using peptide to siRNA molar ratios (MR is the ratio of peptide to siRNA) […] and incubated at RT for 1 h. For siLuc2, the final concentration in media was 25 nM and for siGFP 100 nM. Cells were co-incubated with complexes for 4 h (37° C., 5% CO2), thereafter fresh serum containing media was added and followed by further incubation (20 h for siLuc2 or 44 h for siGFP complexes). Luciferase gene downregulation was measured from cell lysates with Promega luciferase assay system (Promega, Sweden) in combination with GLOMAX 96 microplate luminometer equipped with GLOMAX 1.9.2 software (Promega). GFP was measured after treatment from cell lysates on black 96-well plates by measuring total fluorescence (Symergy MX, BioTek Instruments, USA equipped with Gen5 1.10 software). The results were normalized to the protein content of each sample (DC Protein Assay, BioRad, USA).
Luciferase activity was determined as described in previous paragraph.
For determination of pH dependency on the transfection efficiency, complexes were formed at MR30, incubated and diluted before addition to cells to obtain siRNA final concentration 10 nM in transfection media. HEPES buffer supplemented with 10% FBS was used as transfection media. Complexes were co-incubated with cells for 4 h and then media was replaced with cell growth media. After further 20 h incubation cells were lysed and analyzed as described previously.
The experiment was carried out in serum containing media (10% FBS). CPP/siRNA complexes were formed at different molar ratios with siRNA concentration kept constant (50 nM in transfection media). Luminescence from luciferin-luciferase reaction was measured at 24 hours post-treatment from cell lysate. Results were normalized to protein content and luminescence values from untreated cells (100%).

murine red blood cells = test: Membrane activity assay on murine red blood cells: hemolysis; type: cell-based, mouse
Description: For evaluation of membrane activity of peptides, hemolysis assay was used. For this whole blood was collected from mouse (adult, BALB/c) saphenous vein into a heparinized collection tube. Blood was centrifuged (2300× g, 15 min) to separate cells (red blood cells-RBC) from the plasma. RBCs were washed according to following procedures.
RBCs were washed with 10 ml 0.9% NaCl saline and centrifuged (600× g, 15 min). Supernatant was discarded after each centrifugation. This was repeated at least 3 times. RBCs were re-suspended in 5 ml saline and distributed equally to tubes and centrifuged (600× g, 15 min). The cells were washed and re-suspended in 2× PBS with the required pH (pH 5.5-7.5). The hemoglobin content in stocks was measured after lysis of cells with equal volume of 0.1% Triton X100 supplemented with 5% glucose. The cell suspension was diluted accordingly for each pH value to obtain similar concentration range of hemoglobin in stocks. To each 100 ul of peptide solution 100 ul of 10% glucose was added, mixed, and equal volume (200 ul) of RBC in 2× PBS were added and gently mixed. Peptide solution with RBCs was incubated at 37° C. for 1 h with gentle mixing (max 300 rpm) after which samples were centrifuged to pellet intact cells from the solution. Hemoglobin from lysed cells was determined from each sample from the supernatant on transparent 96-well plates by measuring the absorbance at 540 nm.
Controls were incubated in similar manner as samples. As a non-hemolysis control mQ supplemented with glucose (0%) was used and for hemolytic control 0.1% TritonX-100 with glucose (100%) was used (cells are suspended in 2× PBS before addition). Final percent was calculated as follows: […]
For hemolytic concentration determination 2× PBS at pH 7.5 was used for incubation and 1× PBS at pH 7.5 was used for washing. Everything else is as described in previous paragraph.

CHO cells = test: pDNA (p-CMV-Luc2) transfection with CPP/pDNA complexes; type: cell-based; details: serum containing medium, CR1 to CR4, 24 h
Description: For the pDNA transfection experiment, CPP/pDNA nanoparticles were prepared by mixing […] of plasmid (p-CMV-Luc2) with the peptide in MQ water. Charge ratios from 1 to 4 (CR, equivalent to the nitrogen-to-phosphate ratio) were used. 50,000 CHO cells were seeded 24 hr before the experiment into 24-well plates, treated with complexes for 4 h in serum-containing medium, incubated for additional 20 hr, lysed and luminescence was measured.

organs of BALB/c mice = test: Gene delivery in vivo (CPP/pDNA, i.v., organ luminescence); parameters: species or system mouse; details: CR2 or CR4, 50 μg or 20 μg pDNA, 24 h
Description: For in vivo pDNA delivery studies BALB/c mice were used. Each animal received a single […] intravenous (i.v.) injection of the complexes at CR2 or CR4. Two doses of pDNA […] were used. After 24 hr, the mice were sacrificed using cervical dislocation, and whole organs were harvested and snap-frozen on dry ice. The organs were homogenized, and luminescence was measured.

Compound | length or size of elongated particles, conglomerates or aggregates (TEM) [1] | Red (%) (reduction, based on remaining luminescence on U87 cells post-treatment) [3] | pDNA delivery / gene expression in vitro (in words) (CHO cells) | other results
CCCCCCCCCCCCCCCCCC(=O)N[C@@H](C)C(=O)NCC(=O)N[C@@H](Cc1ccc(O)cc1)C(=O)N[C@@H](CC(C)C)C(=O)N[C@@H](CC(C)C)C(=O)NCC(=O)NCCC[C@H](N)C(=O)N[C@H](C(=O)N[C@@H](CC(N)=O)C(=O)N[C@@H](CC(C)C)C(=O)N[C@@H](CCCCN)C(=O)N[C@@H](C)C(=O)N[C@@H](CC(C)C)C(=O)N[C@@H](C)C(=O)N[C@@H](C)C(=O)N[C@@H](CC(C)C)C(=O)N[C@@H](C)C(=O)N[C@@H](CCCCN)C(=O)N[C@@H](C)C(=O)N[C@H](C(=O)N[C@@H](CC(C)C)C(N)=O)[C@@H](C)CC)[C@@H](C)CC [NF55, reference compound] (I: H-[Orn]INLKALAALAKAIL-NH2 / II: Stearoyl-AGYLLG; amide I:1-II:C) | up to 100 nm | 75% |  | nanoparticle diameter / size (TEM) [1]: 10-50 nm; siRNA accessible [2]: 10%; HC50 CPP/siRNA complex (peptide concentration) (murine red blood cells; CPP/siRNA complexes at MR30): 3.2 µM; HC50 Free peptide (murine red blood cells; free peptide, pH 7.5): 1.7 µM; increase of hemolytic activity at pH 5.5 (murine red blood cells; peptide 0.75 uM, buffer pH 5.5): 25%; pH dependent hemolytic activity (in words) (murine red blood cells; peptide 0.75 uM, buffer pH 5.5-7.5): least influenced by the pH decrease
HHHHYHHGO^eILLKALKALAKAIL [NF700, group H6; without fatty acid; C-terminally amidated] | exceed 500 nm | 6% |  | luciferase downregulation efficiency (in words) [3]: do not reveal any significant luciferase silencing activity
HHHHYHHGO^eILLKALKALAKAIL [NF702, group H6; C18 saturated fatty acid on N-terminus; C-terminally amidated] |  | 70% | almost yielded the same gene expression level as that of NF70 and NF55; also recorded: promising vectors for pDNA transfection | 
HHHHYHHGO^eILLKALKALAKAIL [NF703, group H6; C22 saturated fatty acid on N-terminus; C-terminally amidated] | 10-20 nm | 73% |  | luciferase downregulation efficiency (in words) [3]: RNA interference effect decreases again
HHHYHHGO^eILLKALKALAKAIL [NF716, group H5; C20 saturated fatty acid on N-terminus; C-terminally amidated] |  | 65% | promising vectors for pDNA transfection | 
HYHHGO^eILLKALKALAKAIL [NF725, group H3; C18 saturated fatty acid on N-terminus; C-terminally amidated] |  | 60% | promising vectors for pDNA transfection | reporter gene expression in organs after i.v. CPP/pDNA (in words) (organs of BALB/c mice): high gene expression level in liver; also recorded: higher at CR4 than CR2
HYHHGO^eILLKALKALAKAIL [NF727, group H3; C22 saturated fatty acid on N-terminus; C-terminally amidated] |  | 43% | promising vectors for pDNA transfection | 
